Biological target: cyclin B1 (CCNB1) (Homo sapiens, UniProt P14635)
Experiment: SPR
Format: binding

Sequence of cyclin B1 (CCNB1) (P14635 whole entry): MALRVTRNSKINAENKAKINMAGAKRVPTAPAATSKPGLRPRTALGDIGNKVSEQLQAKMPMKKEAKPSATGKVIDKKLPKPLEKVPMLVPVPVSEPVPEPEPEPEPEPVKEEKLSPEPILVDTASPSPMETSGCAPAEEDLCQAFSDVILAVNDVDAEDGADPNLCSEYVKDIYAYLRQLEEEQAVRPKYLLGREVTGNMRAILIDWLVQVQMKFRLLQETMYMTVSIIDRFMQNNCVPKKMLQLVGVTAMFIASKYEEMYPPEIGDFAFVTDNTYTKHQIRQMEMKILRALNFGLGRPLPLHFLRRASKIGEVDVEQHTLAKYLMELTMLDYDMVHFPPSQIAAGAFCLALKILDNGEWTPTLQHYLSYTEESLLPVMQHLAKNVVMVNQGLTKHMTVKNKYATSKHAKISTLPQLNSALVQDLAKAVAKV

Question: For O=c1cc(-c2ccc(O)c(O)c2)oc2cc(O)cc(O)c12 [Luteolin, 3′,4′,5,7-tetrahydroxyflavone], which Kd is on record?
Answer: ~36.7 µM
